Experiment: Radioactive decay of the isotopes
Type: physicochemical
Conditions: at day 30, from half-life

| SMILES | radioactive isotope expected to remain in the subject |
| --- | --- |
| [166Ho] [Ho-166, holmium-166] | less than 0.20% |
| [177Lu] [Lu-177, lutetium-177] | less than 6.25% |

Reference: patent publication US20110184418A1, “Unsealed, Non-Colloidal Radiopharmaceutical Compositions and Methods for Treatment of Abnormal Tissue” (priority 2009, published 2011)
